Data taken from patent publication US9198420B2, “Rodenticidal norbormide analogues” (priority 2012, dated 2015).
Like-named read-outs stand apart in the source and are kept apart here. Marks after values point to notes of the source that are not given here.

Assays:
[1] = test system: Sprague Dawley rats; test: Palatability (choice) trial, peanut butter bait; type: in vivo, rat (Sprague Dawley); conditions: 2 days
[2] = test system: rat caudal artery; test: Rat caudal artery ring contractile force (vasoconstrictory activity); design: species or system rat (male Wistar); conditions: for Emax: Table 1, read-out: Vasoconstriction: maximum contractile effect as a % of 90 mM KCl contraction
In short: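 Endothelium-denuded caudal artery rings from male Wistar rats were held at 2 g resting tension in Tyrode solution (37° C, pH 7.35, 95% O2/CO2) and isometric force was recorded. Compounds were tested at 50 μM, with contraction expressed as percent of the 90 mM KCl response.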

[3] = Rat serum assay (release of NRB or NRB analogue); type: in vitro ADME; conditions: 80% rat serum, 37° C., 3 h, n = 3
Experimental: The hydrolytic stability of compounds of the invention in rat blood was evaluated using in vitro rat serum obtained from Sigma-Aldrich and stored at −78° C. Similar assay conditions to those reported by Li Di and co-workers (Int. J. Pharm. 2005, 297, 110-119) were followed [200 μL total volume, 80% rat serum (diluting with phosphate buffer (0.1 M, pH 7.4)), at a final compound concentration of 200 μM, 2.5% DMSO overall, 37° C., 3 h, n=3] using an Eppendorf Thermomixer Compact. Reactions were quenched by transferring 150 μL of the incubation mixture to 450 μL of ice-cold acetonitrile, affording a final compound/NRB or NRB analogue concentration of 50 μM. Samples were centrifuged at 14,500×g for 15 min using an Eppendorf Mini Spin Plus centrifuge, at ambient temperature. 400 μL of the supernatant was removed and transferred to clean tubes. Analysis was by RP-LCMS at an injection volume of 20 μL. Each compound and corresponding NRB or NRB analogue were subjected to external calibration curves at 50 μM, 100 μM and 200 μM to allow conversion of absorbance unit area into nmol, from which the percentage of NRB or NRB analogue released from each compound was calculated.

[4] = test system: Sprague Dawley rats; test: Palatability (no-choice) trial, peanut butter bait; type: in vivo, rat (Sprague Dawley); conditions: 1% w/w toxicant in peanut butter bait; for mortality at 1 %: po
Excerpt: In the palatability trials, Sprague Dawley rats (ca. 250 g) were presented with 1% w/w compound (n=6) or 0.5% w/w compound (n=5) in a peanut butter bait, following 3 days ‘pre-baiting’ with a peanut butter formulation free of toxicant.

[5] = test system: Sprague Dawley rats; test: In vivo lethality, oral gavage; design: species or system rat (Sprague Dawley); conditions: rat; for Time to Death (min) / Onset of Symptoms: mean time; for Onset of Symptoms: visual signs of distress consistent with NRB-like symptoms; for In vivo lethality (oral): n = 2
In short: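 Sprague Dawley rats (150-200 g) received compound dissolved in 0.2 M HCl (5% DMSO overall) at the desired dose, by oral gavage or tail-vein i.v. injection. Animals were watched for early toxicity signs every minute (i.v.) or every 15 min (oral).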

[6] = Simulated gastric fluid (SGF) hydrolytic stability assay; type: physicochemical; conditions: footnote c: compounds not exhibiting vasoconstriction; simulated gastric fluid without pepsin, pH 1.2, 37° C., 1 h, n = 3
Experimental: All in vivo candidates were subjected to a 1 h hydrolytic stability appraisal in the presence of SGF, without pepsin (United States Pharmacopoeia 24) [200 μL total volume, sodium chloride solution (0.03 M) acidified to pH 1.2 with concentrated hydrochloric acid, at a final compound concentration of 200 μM, 2.5% DMSO overall, 37° C., n=3], to investigate any potential chemical instabilities that may occur in the acidic environment of the stomach prior to uptake. Analysis was by RP-LCMS at an injection volume of 5 μL.

[7] = test system: Sprague Dawley rats; test: In vivo lethality, intravenous injection via the tail; design: species or system rat (Sprague Dawley); conditions: 20 mg/Kg, rat, n = 2
Experimental: Sprague Dawley rats (150-200 g) were used to appraise the rodenticidal activity of the compounds put forward for in vivo evaluation. Briefly, prior to administration the compounds were dissolved in 0.2 M hydrochloric acid (5% DMSO overall), to the desired dose, and without delay either injected intravenously, via the tail, or orally gavaged. All treated animals were housed in a quiet room and monitored every minute (i.v) or every 15 min (oral) to verify early signs of toxicity.

[8] = choice of EPA diet (20 g) and bait with 1% w/w toxicant (20 g), n = 2, Table 15
[9] = choice of EPA diet (20 g) and bait with 1% w/w toxicant (20 g), n = 12, Table 14
[10] = choice of standard lab pellets (20 g) and bait with 1% w/w toxicant (20 g), n = 12, Table 13
[11] = n = 6, 3 male and 3 female rats, Table 11, read-out: No of deaths (converted)

Structure (SMILES)	No of deaths [1, 8]	Vasoconstriction: maximum contractile effect as a % of 90 mM KCl contraction ([2]; Table 4, pre-cleavage, n = 3)	Time to Death (min) ([5]; 20 mg/Kg)	Onset of Symptoms ([5]; 20 mg/Kg) [min]	Emax [2] [%]	melting point [°C]	further results
CC(=Cc1ccccc1)C(=O)OCCN1C(=O)C2C3C=C(C(O)(c4ccccc4)c4ccccn4)C(C3=C(c3ccccc3)c3ccccn3)C2C1=O (stereo not drawn) [Compound 121, 5-(α-Hydroxy-α-2-pyridylbenzyl)-N-2′-α-methylcinnamoyloxyethyl-7-(α-2-pyridylbenzylidene)-5-norbornene-2,3-dicarboximide]	3/12	0%	not lethal	20			Vasoconstriction: maximum contractile effect as a % of 90 mM KCl contraction ([2]; Table 1, compound at 50 μM): 0%; % NRB released, Rat Serum [3]: 19.1 ± 1.3%; No of deaths ([4]; n = 6, 3 male and 3 female rats, Table 11): 6/6; % NRB released, Hydrolytic Stability (simulated gastric fluid) [6]: 0^c %
COc1ccc(C=CC(=O)OCCN2C(=O)C3C4C=C(C(O)(c5ccccc5)c5ccccn5)C(C4=C(c4ccccc4)c4ccccn4)C3C2=O)cc1 (stereo not drawn) [Compound 126, 5-(α-Hydroxy-α-2-pyridylbenzyl)-N-[2′-(4″-methoxycinnamoyloxy)ethyl]-7-(α-2-pyridylbenzylidene)-5-norbornene-2,3-dicarboximide]		0%	50^d min	25	0		No of deaths [1, 9]: 8/11^b; No of deaths [1, 10]: 10/12; In vivo lethality (i.v.) [7]: yes^f; mortality at 1 % ([4]; n = 6, male rats only, Table 10, read-out: No of deaths (converted)): 83.3%; In vivo lethality (oral) ([5]; 20 mg/Kg): yes^h,i; In vivo lethality (oral) ([5]; 40 mg/Kg): yes^h,i
Cc1ccc(CC(=O)OCN2C(=O)C3C4C=C(C(O)(c5ccccc5)c5ccccn5)C(C4=C(c4ccccc4)c4ccccn4)C3C2=O)cc1 (stereo not drawn) [Compound 324, 5-(α-Hydroxy-α-2-pyridylbenzyl)-N-4-methylphenylacetoyloxymethyl-7-(α-2-pyridylbenzylidene)-5-norbornene-2,3-dicarboximide]	5/12	17%	60^d min	15	17		mortality at 1 % [4, 11]: 100%; In vivo lethality (oral) ([5]; 20 mg/Kg): yes^h,i; In vivo lethality (oral) ([5]; 40 mg/Kg): yes^h,i
COc1ccccc1C=CC(=O)OCCN1C(=O)C2C3C=C(C(O)(c4ccccc4)c4ccccn4)C(C3=C(c3ccccc3)c3ccccn3)C2C1=O (stereo not drawn) [Compound 124, 5-(α-Hydroxy-α-2-pyridylbenzyl)-N-[2′-(2″-methoxycinnamoyloxy)ethyl]-7-(α-2-pyridylbenzylidene)-5-norbornene-2,3-dicarboximide]					23	101 to 108	
CC(C)(C)C(=O)OCN1C(=O)C2C3C=C(C(O)(c4ccccc4)c4ccccn4)C(C3=C(c3ccccc3)c3ccccn3)C2C1=O (stereo not drawn) [Compound 8, 5-(α-Hydroxy-α-2-pyridylbenzyl)-N-pivaloyloxymethyl-7-(α-2-pyridylbenzylidene)-5-norbornene-2,3-dicarboximide]		≧132%			≥ 132	95 to 98	
CCc1ccc(C=CC(=O)OCCN2C(=O)C3C4C=C(C(O)(c5ccccc5)c5ccccn5)C(C4=C(c4ccccc4)c4ccccn4)C3C2=O)cc1 (stereo not drawn) [Compound 335, N-[2′-(4″-Ethylcinnamoyloxy)ethyl]-5-(α-hydroxy-α-2-pyridylbenzyl)-7-(α-2-pyridylbenzylidene)-5-norbornene-2,3-dicarboximide]	7/12	19%	90^e min	15	19		mortality at 1 % [4, 11]: 100%; In vivo lethality (oral) ([5]; 40 mg/Kg): yes^h
O=C(C=Cc1ccc([N+](=O)[O-])cc1)OCCN1C(=O)C2C3C=C(C(O)(c4ccccc4)c4ccccn4)C(C3=C(c3ccccc3)c3ccccn3)C2C1=O (stereo not drawn) [Compound 130, 5-(α-Hydroxy-α-2-pyridylbenzyl)-N-[2′-(4″-nitrocinnamoyloxy)ethyl]-7-(α-2-pyridylbenzylidene)-5-norbornene-2,3-dicarboximide]					20	105 to 110	
COc1cc(C=CC(=O)OCCN2C(=O)C3C4C=C(C(O)(c5ccccc5)c5ccccn5)C(C4=C(c4ccccc4)c4ccccn4)C3C2=O)cc(OC)c1OC (stereo not drawn) [Compound 133, 5-(α-Hydroxy-α-2-pyridylbenzyl)-7-(α-2-pyridylbenzylidene)-N-[2′-(3″,4″,5″-trimethoxycinnamoyloxy)ethyl]-5-norbornene-2,3-dicarboximide]					30	109 to 113	
O=C1NC(=O)C2C3C(C(O)(c4ccccc4)c4ccccn4)=CC(C3=C(c3ccccc3)c3ccccn3)C12 (stereo not drawn) [NRB, 5-(α-Hydroxy-α-2-pyridylbenzyl)-7-(α-2-pyridylbenzylidene)-5-norbornene-2,3-dicarboximide, reference compound]	5/12				132		No of deaths [1, 9]: 2/12; No of deaths [1, 10]: 5/12; Vasoconstriction: maximum contractile effect as a % of 90 mM KCl contraction ([2]; Table 5, compounds of formula (III)): ^aMaximum contractile effect as a % of 90 mM KCl contraction (rat caudal artery); stereoisomeric mixture of NRB = 132%.; Vasoconstriction: maximum contractile effect as a % of 90 mM KCl contraction ([2]; Table 7, compounds of formula (V)): ^aMaximum contractile effect as a % of 90 mM KCl contraction (rat caudal artery); stereoisomeric mixture of NRB = 132%.
O=C(CCc1ccccc1)OCN1C(=O)C2C3C=C(C(O)(c4ccccc4)c4ccccn4)C(C3=C(c3ccccc3)c3ccccn3)C2C1=O (stereo not drawn) [Compound 18, N-Dihydrocinnamoyloxymethyl-5-(α-hydroxy-α-2-pyridylbenzyl)-7-(α-2-pyridylbenzylidene)-5-norbornene-2,3-dicarboximide]		13%			13	89 to 94	
COc1cccc(C(=O)OCN2C(=O)C3C4C=C(C(O)(c5ccccc5)c5ccccn5)C(C4=C(c4ccccc4)c4ccccn4)C3C2=O)c1 (stereo not drawn) [Compound 14, 5-(α-Hydroxy-α-2-pyridylbenzyl)-N-m-methoxybenzoyloxymethyl-7-(α-2-pyridylbenzylidene)-5-norbornene-2,3-dicarboximide]		0%			0	171 to 180	
O=C(C=Cc1ccc(Cl)c(Cl)c1)OCCN1C(=O)C2C3C=C(C(O)(c4ccccc4)c4ccccn4)C(C3=C(c3ccccc3)c3ccccn3)C2C1=O (stereo not drawn) [Compound 134, N-[2′-(3″,4″-Dichlorocinnamoyloxy)ethyl]-5-(α-hydroxy-α-2-pyridylbenzyl)-7-(α-2-pyridylbenzylidene)-5-norbornene-2,3-dicarboximide]		0%			0	99 to 104	
